Drawing on BindingDB's records for doi:10.1021/jm060173k (Schering-Plough Research Institute, 2007), this text covers Ki for 20 compounds.

SMILES strings stand for the structures.

For this experiment, the target named is Genome polyprotein (Hepatitis C virus genotype 1a (isolate H77), UniProt P27958). As to the kind of experiment: Continuous Spectrophotometric Assay. The protocol: Proteolytic cleavage of the ester linkage between the Nva (L-norvaline) and the chromophore (PAP) was monitored for change in absorbance at 370 nm. Initial velocities were determined using linear regression and kinetic constants were obtained by fitting the data to the Michaelis-Menten equation.
Chain of Genome polyprotein (P27958 1027-1657 limits assumed): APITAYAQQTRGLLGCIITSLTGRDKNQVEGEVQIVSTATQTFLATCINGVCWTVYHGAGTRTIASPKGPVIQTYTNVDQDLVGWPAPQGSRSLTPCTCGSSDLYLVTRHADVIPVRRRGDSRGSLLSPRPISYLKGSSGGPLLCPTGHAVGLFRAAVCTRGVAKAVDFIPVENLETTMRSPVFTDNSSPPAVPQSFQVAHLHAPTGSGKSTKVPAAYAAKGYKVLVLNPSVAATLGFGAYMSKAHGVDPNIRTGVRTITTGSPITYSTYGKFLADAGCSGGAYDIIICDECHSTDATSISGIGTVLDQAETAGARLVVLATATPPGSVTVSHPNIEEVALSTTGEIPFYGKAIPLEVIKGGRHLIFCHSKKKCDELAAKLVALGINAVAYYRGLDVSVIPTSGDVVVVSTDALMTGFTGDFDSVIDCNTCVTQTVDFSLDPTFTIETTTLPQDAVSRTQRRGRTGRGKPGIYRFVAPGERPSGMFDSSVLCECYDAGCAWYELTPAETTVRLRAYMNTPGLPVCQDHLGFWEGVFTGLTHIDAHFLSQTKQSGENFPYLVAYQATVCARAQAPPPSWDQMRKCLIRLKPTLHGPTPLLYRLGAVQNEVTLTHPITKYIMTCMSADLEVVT

By Ki is commonly meant a dissociation constant, usually derived from enzyme kinetics or from competition with a known ligand. In turn, `CC(C)(C)NC(=O)NC(C(=O)N1C[C@H]2[C@@H](C1C(=O)NC(CC1CC1(F)F)C(=O)C(N)=O)C2(C)C)C(C)(C)C` (stereo partly drawn) [3-{[(1R,5S)-3-{2-[(tert-butylcarbamoyl)amino]-3,3-dimethylbutanoyl}-6,6-dimethyl-3-azabicyclo[3.1.0]hexan-2-yl]formamido}-4-(2,2-difluorocyclopropyl)-2-oxobutanamide] displayed a Ki of 50 nM.
`CCCC(NC(=O)C1[C@@H]2[C@H](CN1C(=O)C(NC(=O)NC(C)(C)C)C1CCCCC1)C2(C)C)C(=O)C(N)=O` (stereo partly drawn) [3-{[(1R,5S)-3-{2-[(tert-butylcarbamoyl)amino]-2-cyclohexylacetyl}-6,6-dimethyl-3-azabicyclo[3.1.0]hexan-2-yl]formamido}-2-oxohexanamide]: the Ki (pH 6.5, 30 °C) amounted to 54 nM.
`CC(C)(C)NC(=O)NC(C(=O)N1C[C@H]2[C@@H](C1C(=O)NC(CC1CCC1)C(=O)C(N)=O)C2(F)F)C(C)(C)C` (stereo partly drawn) [3-{[(1S,5R)-3-{2-[(tert-butylcarbamoyl)amino]-3,3-dimethylbutanoyl}-6,6-difluoro-3-azabicyclo[3.1.0]hexan-2-yl]formamido}-4-cyclobutyl-2-oxobutanamide] yielded a Ki of 140 nM.
The same measure, in the same setting: the same measure for `CC(C)(C)NC(=O)NC(C(=O)N1C[C@H]2[C@@H](C1C(=O)NC(CC1CCC1)C(=O)C(N)=O)C2(Cl)Cl)C(C)(C)C` (stereo partly drawn) [3-{[(1S,5R)-3-{2-[(tert-butylcarbamoyl)amino]-3,3-dimethylbutanoyl}-6,6-dichloro-3-azabicyclo[3.1.0]hexan-2-yl]formamido}-4-cyclobutyl-2-oxobutanamide]: 19 nM.
For the setting “pH 6.5, 30 °C”, `CC(C)(C)CC(NC(=O)C1[C@@H]2[C@H](CN1C(=O)C(NC(=O)OC(C)(C)C)C(C)(C)C)C2(C)C)C(=O)C(N)=O` (stereo partly drawn) [tert-butyl N-{1-[(1R,5S)-2-[(1-carbamoyl-4,4-dimethyl-1-oxopentan-2-yl)carbamoyl]-6,6-dimethyl-3-azabicyclo[3.1.0]hexan-3-yl]-3,3-dimethyl-1-oxobutan-2-yl}carbamate] displayed a Ki of more than 3300 nM.
On to `CC(C)(C)NC(=O)NC(C(=O)N1C[C@@H]2OC(C)(C)[C@@H]2C1C(=O)NC(CC1CCC1)C(=O)C(N)=O)C(C)(C)C` (stereo partly drawn) [3-{[(1R,5R)-3-{2-[(tert-butylcarbamoyl)amino]-3,3-dimethylbutanoyl}-7,7-dimethyl-6-oxa-3-azabicyclo[3.2.0]heptan-2-yl]formamido}-4-cyclobutyl-2-oxobutanamide], for which the Ki was found to be 960 nM.
On to `CC(C)CC(NC(=O)C1[C@@H]2[C@H](CN1C(=O)C(NC(=O)OC(C)(C)C)C(C)(C)C)C2(C)C)C(=O)C(N)=O` (stereo partly drawn) [tert-butyl N-{1-[(1R,5S)-2-[(1-carbamoyl-4-methyl-1-oxopentan-2-yl)carbamoyl]-6,6-dimethyl-3-azabicyclo[3.1.0]hexan-3-yl]-3,3-dimethyl-1-oxobutan-2-yl}carbamate], for which affinity (pH 6.5, 30 °C) was put at a Ki of 480 nM.
In turn, `CC(C)(C)NC(=O)NC(C(=O)N1C[C@H]2[C@@H](C1C(=O)NC(CC1CC(F)(F)C1)C(=O)C(N)=O)C2(C)C)C(C)(C)C` (stereo partly drawn) [3-{[(1R,5S)-3-{2-[(tert-butylcarbamoyl)amino]-3,3-dimethylbutanoyl}-6,6-dimethyl-3-azabicyclo[3.1.0]hexan-2-yl]formamido}-4-(3,3-difluorocyclobutyl)-2-oxobutanamide] returned a Ki of 115 nM.
Where the note is “pH 6.5, 30 °C”, `CC(C)(C)NC(=O)NC(C(=O)N1C[C@H]2[C@@H](C1C(=O)NC(C(=O)C(N)=O)C1CCC1)C2(C)C)C(C)(C)C` (stereo partly drawn) [3-{[(1R,5S)-3-{2-[(tert-butylcarbamoyl)amino]-3,3-dimethylbutanoyl}-6,6-dimethyl-3-azabicyclo[3.1.0]hexan-2-yl]formamido}-3-cyclobutyl-2-oxopropanamide] yielded a Ki of 100 nM.
On the same count and under the same terms, the same measure for `CCCCC(NC(=O)C1[C@@H]2[C@H](CN1C(=O)C(NC(=O)OC(C)(C)C)C(C)(C)C)C2(C)C)C(=O)C(N)=O` (stereo partly drawn) [tert-butyl N-{1-[(1R,5S)-2-[(1-carbamoyl-1-oxohexan-2-yl)carbamoyl]-6,6-dimethyl-3-azabicyclo[3.1.0]hexan-3-yl]-3,3-dimethyl-1-oxobutan-2-yl}carbamate]: 360 nM.
Regarding `CCOC(=O)NC(C(=O)N1C[C@H]2[C@@H](C1C(=O)NC(CC1CC1)C(=O)C(N)=O)C2(C)C)C1CCCCC1` (stereo partly drawn) [ethyl N-{2-[(1R,5S)-2-[(1-carbamoyl-3-cyclopropyl-1-oxopropan-2-yl)carbamoyl]-6,6-dimethyl-3-azabicyclo[3.1.0]hexan-3-yl]-1-cyclohexyl-2-oxoethyl}carbamate], the Ki is 230 nM.
On the same count and under the same terms, the same measure for `CC(=O)NC(C(=O)NC(C(=O)N1C[C@H]2[C@@H](C1C(=O)NC(CC1CC1)C(=O)C(N)=O)C2(C)C)C1CCCCC1)C(C)C` (stereo partly drawn) [N-{2-[(1R,5S)-2-[(1-carbamoyl-3-cyclopropyl-1-oxopropan-2-yl)carbamoyl]-6,6-dimethyl-3-azabicyclo[3.1.0]hexan-3-yl]-1-cyclohexyl-2-oxoethyl}-2-acetamido-3-methylbutanamide]: 68 nM; for `CC(C)OC(=O)NC(C(=O)N1C[C@H]2[C@@H](C1C(=O)NC(CC1CC1)C(=O)C(N)=O)C2(C)C)C1CCCCC1` (stereo partly drawn) [propan-2-yl N-{2-[(1R,5S)-2-[(1-carbamoyl-3-cyclopropyl-1-oxopropan-2-yl)carbamoyl]-6,6-dimethyl-3-azabicyclo[3.1.0]hexan-3-yl]-1-cyclohexyl-2-oxoethyl}carbamate]: 60 nM.
Compound `CCCC(NC(=O)C1[C@@H]2[C@H](CN1C(=O)C(NC(=O)OC(C)(C)C)C(C)(C)C)C2(C)C)C(=O)C(N)=O` (stereo partly drawn) [tert-butyl N-{1-[(1R,5S)-2-[(1-carbamoyl-1-oxopentan-2-yl)carbamoyl]-6,6-dimethyl-3-azabicyclo[3.1.0]hexan-3-yl]-3,3-dimethyl-1-oxobutan-2-yl}carbamate] returned an inhibition constant (Ki) (pH 6.5, 30 °C) of 220 nM.
Compound `CC(C)(C)OC(=O)NC(C(=O)N1C[C@H]2[C@@H](C1C(=O)NC(C(=O)C(N)=O)C(C)(C)C)C2(C)C)C(C)(C)C` (stereo partly drawn) [tert-butyl N-{1-[(1R,5S)-2-[(1-carbamoyl-3,3-dimethyl-1-oxobutan-2-yl)carbamoyl]-6,6-dimethyl-3-azabicyclo[3.1.0]hexan-3-yl]-3,3-dimethyl-1-oxobutan-2-yl}carbamate] gave a Ki (pH 6.5, 30 °C) of more than 69000 nM.
As to `CC(C)C(NC(=O)NC(C)(C)C)C(=O)N1C[C@H]2[C@@H](C1C(=O)NC(CC1CC1)C(=O)C(N)=O)C2(C)C` (stereo partly drawn) [3-{[(1R,5S)-3-{2-[(tert-butylcarbamoyl)amino]-3-methylbutanoyl}-6,6-dimethyl-3-azabicyclo[3.1.0]hexan-2-yl]formamido}-4-cyclopropyl-2-oxobutanamide], the affinity corresponds to a Ki of 100 nM.
On the same count and under the same terms, the same measure for `CC(=O)NC(C(=O)NC(C(=O)N1C[C@H]2[C@@H](C1C(=O)NC(CC1CCC1)C(=O)C(N)=O)C2(C)C)C(C)(C)C)C(C)C` (stereo partly drawn) [N-{1-[(1R,5S)-2-[(1-carbamoyl-3-cyclobutyl-1-oxopropan-2-yl)carbamoyl]-6,6-dimethyl-3-azabicyclo[3.1.0]hexan-3-yl]-3,3-dimethyl-1-oxobutan-2-yl}-2-acetamido-3-methylbutanamide]: 38 nM; for `CC(C)(C)NC(=O)NC(C(=O)N1C[C@@H]2OC(C)(C)C[C@@H]2C1C(=O)NC(CC1CCC1)C(=O)C(N)=O)C(C)(C)C` (stereo partly drawn) [3-{[(3aR,6aR)-5-{2-[(tert-butylcarbamoyl)amino]-3,3-dimethylbutanoyl}-2,2-dimethyl-hexahydro-2H-furo[2,3-c]pyrrol-4-yl]formamido}-4-cyclobutyl-2-oxobutanamide]: 500 nM.
Same read-out and setting: under `CC(C)CC(NC(=O)C(NC(=O)NC(C)(C)C)C(C)(C)C)C(=O)NC(CC1CCC1)C(=O)C(N)=O` (stereo not given) [2-{2-[(tert-butylcarbamoyl)amino]-3,3-dimethylbutanamido}-N-(1-carbamoyl-3-cyclobutyl-1-oxopropan-2-yl)-4-methylpentanamide] stands 1000 nM; under `COC(=O)NC(C(=O)N1C[C@H]2[C@@H](C1C(=O)NC(CC1CC1)C(=O)C(N)=O)C2(C)C)C1CCCCC1` (stereo partly drawn) [methyl N-{2-[(1R,5S)-2-[(1-carbamoyl-3-cyclopropyl-1-oxopropan-2-yl)carbamoyl]-6,6-dimethyl-3-azabicyclo[3.1.0]hexan-3-yl]-1-cyclohexyl-2-oxoethyl}carbamate], 800 nM.
